Consider five compounds from ChEMBL document CHEMBL1123145, “Synthesis of pyrrolizidine alkaloids indicine, intermedine, lycopsamine, and analogues and their N-oxides. Potential antitumor agents” (1985).

What all share (type): functional, Mus musculus
Experiment [1] concerns P388. As to the kind of experiment: Number of Survivors determined for antitumor activity against P388 Lymphocytic Leukemia system on day 5 at a dose of 480 mg/kg(6 out of 6).
Experiment [2] concerns P388. As to the kind of experiment: Survival rate of the animals determined for antitumor activity against P388 Lymphocytic Leukemia system at a dose of 60 mg/kg.
The subject of experiment [3] is P388. As to the kind of experiment: Weight difference observed in survivors treated for antitumor activity against P388 Lymphocytic Leukemia system at a dose of 120 mg/kg.
Experiment [4] relates to P388. The experiment is described as follows: Number of Survivors determined for antitumor activity against P388 Lymphocytic Leukemia system on day 5 at a dose of 120 mg/kg (6 out of 6).
Experiment [5] concerns P388. The experiment is described as follows: Survival rate of the animals determined for antitumor activity against P388 Lymphocytic Leukemia system at a dose of 15 mg/kg.
The subject of experiment [6] is P388. As to the kind of experiment: Number of Survivors determined for antitumor activity against P388 Lymphocytic Leukemia system on day 5 at a dose of 240 mg/kg ([…]).
Experiment [7] deals with P388. The experiment is described as follows: Number of Survivors determined for antitumor activity against P388 Lymphocytic Leukemia system on day 5 at a dose of 30 mg/kg (6 out of 6).
The test system of experiment [8] is P388. The experiment is described as follows: Survival rate of the animals determined for antitumor activity against P388 Lymphocytic Leukemia system at a dose of 30 mg/kg.
The test system of experiment [9] is P388. As to the kind of experiment: Weight difference observed in survivors treated for antitumor activity against P388 Lymphocytic Leukemia system at a dose of 30 mg/kg.
Experiment [10] deals with P388. As to the kind of experiment: Weight difference observed in survivors treated for antitumor activity against P388 Lymphocytic Leukemia system at a dose of 240 mg/kg.
Experiment [11] concerns P388. The experiment is described as follows: Survival rate of the animals determined for antitumor activity against P388 Lymphocytic Leukemia system at a dose of 480 mg/kg.
The test system of experiment [12] is P388. As to the kind of experiment: Survival rate of the animals determined for antitumor activity against P388 Lymphocytic Leukemia system at a dose of 120 mg/kg.
Experiment [13] deals with P388. As to the kind of experiment: Survival rate of the animals determined for antitumor activity against P388 Lymphocytic Leukemia system at a dose of 240 mg/kg.
Experiment [14] relates to P388. As to the kind of experiment: Number of Survivors determined for antitumor activity against P388 Lymphocytic Leukemia system on day 5 at a dose of 60 mg/kg (6 out of 6).
The subject of experiment [15] is P388. As to the kind of experiment: Weight difference observed in survivors treated for antitumor activity against P388 Lymphocytic Leukemia system at a dose of 60 mg/kg.
Experiment [16] has as its system P388. As to the kind of experiment: Weight difference observed in survivors treated for antitumor activity against P388 Lymphocytic Leukemia system at a dose of 480 mg/kg.
For experiment [17], the system named is P388. The experiment is described as follows: Weight difference observed in survivors treated for antitumor activity against P388 Lymphocytic Leukemia system at a dose of 15 mg/kg.
The subject of experiment [18] is P388. As to the kind of experiment: Number of Survivors determined for antitumor activity against P388 Lymphocytic Leukemia system on day 5 at a dose of 15 mg/kg (6 out of 6).
Experiment [19] has as its system P388. The experiment is described as follows: Survival rate of the animals determined for antitumor activity against P388 Lymphocytic Leukemia system at a dose of 17 mg/kg.
In experiment [20] the test system is P388. The experiment is described as follows: Weight difference observed in survivors treated for antitumor activity against P388 Lymphocytic Leukemia system at a dose of 68 mg/kg.
For experiment [21], the system named is P388. The experiment is described as follows: Weight difference observed in survivors treated for antitumor activity against P388 Lymphocytic Leukemia system at a dose of 34 mg/kg.
The subject of experiment [22] is P388. The experiment is described as follows: Number of Survivors determined for antitumor activity against P388 Lymphocytic Leukemia system on day 5 at a dose of 17 mg/kg (6 out of 6).
Experiment [23] relates to P388. The experiment is described as follows: Weight difference observed in survivors treated for antitumor activity against P388 Lymphocytic Leukemia system at a dose of 17 mg/kg.
Experiment [24] has as its system P388. As to the kind of experiment: Number of Survivors determined for antitumor activity against P388 Lymphocytic Leukemia system on day 5 at a dose of 34 mg/kg (6 out of 6).
Experiment [25] relates to P388. As to the kind of experiment: Weight difference observed in survivors treated for antitumor activity against P388 Lymphocytic Leukemia system at a dose of 8.5 mg/kg.
For experiment [26], the system named is P388. As to the kind of experiment: Survival rate of the animals determined for antitumor activity against P388 Lymphocytic Leukemia system at a dose of 68 mg/kg.
Experiment [27] has as its system P388. The experiment is described as follows: Number of Survivors determined for antitumor activity against P388 Lymphocytic Leukemia system on day 5 at a dose of 8.5 mg/kg(6 out of 6).
Experiment [28] deals with P388. The experiment is described as follows: Number of Survivors determined for antitumor activity against P388 Lymphocytic Leukemia system on day 5 at a dose of 68 mg/kg(6 out of 6).
In experiment [29] the test system is P388. As to the kind of experiment: Survival rate of the animals determined for antitumor activity against P388 Lymphocytic Leukemia system at a dose of 8.5 mg/kg.
The test system of experiment [30] is P388. As to the kind of experiment: Survival rate of the animals determined for antitumor activity against P388 Lymphocytic Leukemia system at a dose of 34 mg/kg.
Experiment [31] has as its system P388. The experiment is described as follows: Number of Survivors determined for antitumor activity against P388 Lymphocytic Leukemia system on day 5 at a dose of 96 mg/kg(5 out of 6).
Experiment [32] has as its system P388. The experiment is described as follows: Weight difference observed in survivors treated for antitumor activity against P388 Lymphocytic Leukemia system at a dose of 24 mg/kg.
In experiment [33] the test system is P388. The experiment is described as follows: Weight difference observed in survivors treated for antitumor activity against P388 Lymphocytic Leukemia system at a dose of 48 mg/kg.
Experiment [34] has as its system P388. As to the kind of experiment: Weight difference observed in survivors treated for antitumor activity against P388 Lymphocytic Leukemia system at a dose of 192 mg/kg.
Experiment [35] concerns P388. The experiment is described as follows: Weight difference observed in survivors treated for antitumor activity against P388 Lymphocytic Leukemia system at a dose of 96 mg/kg.
Experiment [36] has as its system P388. As to the kind of experiment: Survival rate of the animals determined for antitumor activity against P388 Lymphocytic Leukemia system at a dose of 96 mg/kg.
In experiment [37] the test system is P388. The experiment is described as follows: Survival rate of the animals determined for antitumor activity against P388 Lymphocytic Leukemia system at a dose of 192 mg/kg.
Experiment [38] has as its system P388. As to the kind of experiment: Survival rate of the animals determined for antitumor activity against P388 Lymphocytic Leukemia system at a dose of 48 mg/kg.
Experiment [39] concerns P388. The experiment is described as follows: Number of Survivors determined for antitumor activity against P388 Lymphocytic Leukemia system on day 5 at a dose of 240 mg/kg (6 out of 6).
In experiment [40] the test system is P388. The experiment is described as follows: Weight difference observed in survivors treated for antitumor activity against P388 Lymphocytic Leukemia system at a dose of 10.5 mg/kg.
Experiment [41] concerns P388. As to the kind of experiment: Survival rate of the animals determined for antitumor activity against P388 Lymphocytic Leukemia system at a dose of 10.5 mg/kg.
The subject of experiment [42] is P388. As to the kind of experiment: Number of Survivors determined for antitumor activity against P388 Lymphocytic Leukemia system on day 5 at a dose of 42 mg/kg(6 out of 6).
Experiment [43] concerns P388. As to the kind of experiment: Survival rate of the animals determined for antitumor activity against P388 Lymphocytic Leukemia system at a dose of 84 mg/kg.
Experiment [44] deals with P388. As to the kind of experiment: Number of Survivors determined for antitumor activity against P388 Lymphocytic Leukemia system on day 5 at a dose of 84 mg/kg(6 out of 6).
For experiment [45], the system named is P388. As to the kind of experiment: Number of Survivors determined for antitumor activity against P388 Lymphocytic Leukemia system on day 5 at a dose of 21 mg/kg(6 out of 6).
Experiment [46] deals with P388. The experiment is described as follows: Weight difference observed in survivors treated for antitumor activity against P388 Lymphocytic Leukemia system at a dose of 42 mg/kg.
Experiment [47] relates to P388. The experiment is described as follows: Survival rate of the animals determined for antitumor activity against P388 Lymphocytic Leukemia system at a dose of 21 mg/kg.
Experiment [48] has as its system P388. The experiment is described as follows: Number of Survivors determined for antitumor activity against P388 Lymphocytic Leukemia system on day 5 at a dose of 10.5 mg/kg (6 out of 6).
The test system of experiment [49] is P388. The experiment is described as follows: Number of Survivors determined for antitumor activity against P388 Lymphocytic Leukemia system on day 5 at a dose of 42 mg/kg.
The test system of experiment [50] is P388. As to the kind of experiment: Weight difference observed in survivors treated for antitumor activity against P388 Lymphocytic Leukemia system at a dose of 21 mg/kg.
For experiment [51], the system named is P388. The experiment is described as follows: Weight difference observed in survivors treated for antitumor activity against P388 Lymphocytic Leukemia system at a dose of 84 mg/kg.

For orientation: T/C means the result in the treated group divided by that in the control group, in per cent. Consider `O=C(Cc1ccccc1)OCC1=CCN2CC[C@@H](O)[C@@H]12`, for which the Survivors with P388 [1], with P388 [4], with P388 [6], with P388 [7], with P388 [14] and in the experiment with P388 [18] was 6 in each case. Besides, the T/C is on record as 97% in the experiment with P388 [2]; 97% in the experiment with P388 [5]; 99% in the experiment with P388 [8]; 116% in the experiment with P388 [11]; 109% with P388 [12]; 105% in the experiment with P388 [13]. Further, the T-C with P388 [3] was -0.6; in the experiment with P388 [9] it was -0.5; in the experiment with P388 [10] it was -0.1; in the experiment with P388 [15] it was -0.3; in the experiment with P388 [16], -2.1; in the experiment with P388 [17] it was -0.8.
Regarding `CC(O)C(C)(O)C(=O)OCC1=CC[N+]2([O-])CC[C@@H](O)[C@@H]12` (stereo partly drawn), the T/C in the experiment with P388 [19] is 117%; in the experiment with P388 [26], 131%; in the experiment on P388 [29] it was 115%; in the experiment on P388 [30], 127%. Also, the T-C with P388 [20] was -0.4; in the experiment on P388 [21], -0.4; in the experiment on P388 [23], 0; with P388 [25] it was -0.3. Also, the Survivors in the experiment with P388 [22], in the experiment with P388 [24], with P388 [27] and with P388 [28] was 6 each time.
Compound `CC(C)C(O)(C(=O)OCC1=CC[N+]2([O-])CC[C@@H](O)C12)C(C)O` (stereo in doubt; form 2) returned a Survivors in the experiment with P388 [31] of 5. Further, the T-C in the experiment with P388 [32] is -0.4; with P388 [33], 1.3; with P388 [34], -4.8; with P388 [35], 0.1. The T/C in the experiment on P388 [36] is listed as 116%; in the experiment with P388 [37], 118%; in the experiment on P388 [38], 100%.
In the case of `CC(C)CC(=O)OCC1=CCN2CC[C@@H](O)[C@@H]12`, the Survivors in the experiment with P388 [1], in the experiment with P388 [4], in the experiment on P388 [7], in the experiment on P388 [14], in the experiment with P388 [39] and in the experiment on P388 [18] was 6 each time. Further, the T/C worked out at 105% in the experiment on P388 [2]; 105% in the experiment with P388 [5]; 109% in the experiment with P388 [8]; 114% with P388 [11]; 108% in the experiment on P388 [12]; 108% in the experiment on P388 [13]. Also, the T-C is on record as -0.1 with P388 [3]; -0.3 with P388 [9]; -0.8 in the experiment with P388 [10]; -0.4 with P388 [15]; -2.7 with P388 [16]; -0.6 with P388 [17].
Turning to `O=C(Cc1ccccc1)OCC1=CC[N+]2([O-])CC[C@@H](O)C12.O=C(OCC1=CC[N+]2([O-])CC[C@@H](O)C12)c1ccccc1` (stereo partly drawn), the T-C in the experiment on P388 [40] is given as 0; in the experiment on P388 [46] it was 0.3; with P388 [50], -0.1; in the experiment on P388 [51], 0.1. Also, the T/C in the experiment with P388 [41] is 104%; in the experiment on P388 [43], 114%; with P388 [47] it was 108%; with P388 [49], 117%. Further, the Survivors in the experiment with P388 [42], with P388 [44], with P388 [45] and in the experiment on P388 [48] was 6 throughout.
